Laboratory results taken from patent US8586607B2, “Compounds for the treatment of metabolic diseases” (Syddansk Universitet, priority 2008, dated 2013).

Biological target: human GPR40 (Homo sapiens, UniProt O14842)
Assay: Calcium mobilization assay, agonistic activity on GPR40
Assay type: cell-based
Details: cells expressing human GPR40 (hGPR40-1321N1); for EC50: read-out: GPR40 agonistic activity (pEC50) (converted)
Description: Cell Culture and Transfection. 1321N1 cells stably transfected with the human GPR40 were kindly provided by Euroscreen (Gosselies, Belgium). hGPR40-1321N1 cells were grown in Dulbecco's modified Eagle's medium supplemented with 10% (v/v) heat-inactivated fetal calf serum, 1% sodium pyruvate, 100 U/ml penicillin, 100 μg/ml streptomycin, and 400 μg/ml G418. 1321N1, HEK293 cells were grown in Dulbecco's modified Eagle's medium supplemented with 10% (v/v) heat-inactivated fetal calf serum, 1% sodium pyruvate, 100 U/ml penicillin, and 100 μg/ml streptomycin. All cells were kept at 37° C. in a 5% CO2 atmosphere. […]
Calcium Mobilization Assays. Calcium measurements were performed using a NOVOstar® microplate reader with a built-in pipetor (BMG LabTech, Offenburg, Germany). Cells were seeded in 96-well tissue-culture plates at a density of 30,000 cells per well. […] For testing of agonists, 20 μl of a ten-fold concentrated test compound solution was injected sequentially into separate wells and fluorescence was measured at 520 nm (bandwidth 25 nm) for 50 intervals of 0.4 seconds each. […] Concentration-inhibition curves in the presence of the test compounds were obtained by preincubating the cells with the compounds for 30 min at 37° C. prior to injection of agonist.

Sequence of human GPR40 (O14842 whole entry): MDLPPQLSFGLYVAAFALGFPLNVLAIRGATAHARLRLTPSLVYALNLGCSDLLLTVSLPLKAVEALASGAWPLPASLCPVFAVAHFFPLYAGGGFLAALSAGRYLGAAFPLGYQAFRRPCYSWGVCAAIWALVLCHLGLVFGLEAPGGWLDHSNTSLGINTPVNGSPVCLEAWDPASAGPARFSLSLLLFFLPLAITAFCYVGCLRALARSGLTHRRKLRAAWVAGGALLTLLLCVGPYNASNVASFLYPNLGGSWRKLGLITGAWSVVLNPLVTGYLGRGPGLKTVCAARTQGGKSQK

SMILES | EC50 [nM] | GPR40 agonistic activity (pEC50)
O=C(O)COc1ccc(C#Cc2ccccc2)cc1 [Example A1, 2-(4-(Phenylethynyl)phenoxy)acetic acid] | 1320 | –
O=C(O)CCc1ccc(C#Cc2cccnc2)cc1 [Example A21, 3-(4-(Pyridin-3-ylethynyl)phenyl)propanoic acid] | 2750 | –
Cc1cc(C)cc(C#Cc2ccc(CCC(=O)O)cc2)c1 [Example A15, 3-(4-((3,5-Dimethylphenyl)ethynyl)phenyl)propanoic acid] | – | 7.13
O=C(O)CCc1ccc(C#Cc2cccc(C(F)(F)F)c2)cc1 [Example A14, 3-(4-((3-(Trifluoromethyl)phenyl)ethynyl)phenyl)propanoic acid] | – | 7.05
Cc1cccc(C#Cc2ccc(CCC(=O)O)cc2)c1 [Example A7, 3-(4-(m-Tolylethynyl)phenyl)propanoic acid] | – | 7.36
O=C(O)CCc1ccc(C#Cc2cccc([N+](=O)[O-])c2)cc1 [Example A12, 3-(4-((3-Nitrophenyl)ethynyl)phenyl)propanoic acid] | 57.5 | –
Cc1ccc(C#Cc2ccc(C3CC3C(=O)O)cc2)cc1 (stereo not drawn) [Example A38, 2-(4-(p-Tolylethynyl)phenyl)cyclopropanecarboxylic acid] | 309 | –
Cc1ccccc1C#Cc1ccc(C2CC2C(=O)O)cc1 (stereo not drawn) [Example A36, 2-(4-(o-Tolylethynyl)phenyl)cyclopropanecarboxylic acid] | 138 | –
Cc1cc(C#Cc2ccc(CCC(=O)O)cc2)ccn1 [Example A32, 3-(4-((2-Methylpyridin-4-yl)ethynyl)phenyl)propanoic acid] | – | 5.95
O=C(O)COc1ccc(C#Cc2cccc(O)c2)cc1 [Example A24, 2-(4-((3-Hydroxyphenyl)ethynyl)phenoxy)ethanoic acid] | 4790 | –
Cc1cccc(C)c1C#Cc1ccc(CCC(=O)O)cc1 [Example A50, 3-(4-((2,6-Dimethylphenyl)etnynyl)phenyl)propanoic acid] | – | 6.38
C#Cc1cccc(C#Cc2ccc(CCC(=O)O)cc2)c1 [Example A18, 3-(4-((3-Ethynylphenyl)ethynyl)phenyl)propanoic acid] | – | 6.81
O=C(O)CCc1ccc(C#Cc2ccccc2)cc1 [Example A5, 3-(4-(Phenylethynyl)phenyl)propanoic acid] | – | 7.02
O=C(O)C1CC1c1ccc(C#Cc2cc(Cl)nc(Cl)c2)cc1 (stereo not drawn) [Example A35, 2-(4-((2,6-Dichloropyridin-4-yl)ethynyl)phenyl)cyclopropanecarboxylic acid] | – | 7.37
C#CCOc1cccc(C#Cc2ccc(CCC(=O)O)cc2)c1 [Example A56, 3-(4-((3-(Prop-2-ynyloxy)phenyl)ethynyl)phenyl)propanoic acid] | 77.6 | –
O=C(O)CCc1ccc(C#Cc2cccc(-c3cn(Cc4ccccc4)nn3)c2)cc1 [Example A19, 3-(4-((3-(1-Benzyl-1H-1,2,3-triazol-4-yl)phenyl)ethynyl)phenyl)propanoic acid] | 1910 | –
Cc1ccccc1C#Cc1ccc(CCC(=O)O)cc1 [Example A9, 3-(4-(o-Tolylethynyl)phenyl)propanoic acid] | – | 7.49
O=C(O)COc1ccc(C#Cc2ccc(CO)cc2)cc1 [Example A26, 2-(4-((4-(Hydroxymethyl)phenyl)ethynyl)phenoxy)ethanoic acid] | 112000 | –
Cc1ccccc1C#Cc1ccc(OCC(=O)O)cc1 [Example A2, 2-(4-(o-Tolylethynyl)phenoxy)acetic acid] | 3630 | –
O=C(O)COc1ccc(C#Cc2ccc(O)cc2)cc1 [Example A25, 2-(4-((4-Hydroxyphenyl)ethynyl)phenoxy)ethanoic acid] | 132000 | –
O=C(O)CCc1ccc(C#Cc2ccnc(Cl)c2)cc1 [Example A22, 3-(4-((2-Chloropyridin-4-yl)ethynyl)phenyl)propanoic acid] | 115 | –
O=C(O)CCc1ccc(C#Cc2ccccc2O)cc1 [Example A58, 3-(4-((2-Hydroxyphenyl)ethynyl)phenyl)propanoic acid] | – | 4.79
Cc1ccc(S(=O)(=O)OCCc2ccccc2C#Cc2ccc(CCC(=O)O)cc2)cc1 [Example A61, 3-(4-((2-(2-(Tosyloxy)ethyl)phenyl)ethynyl)phenyl)propanoic acid] | 316 | –

SMILES | EC50 [nM] | GPR40 agonistic activity (pEC50)
CCc1ccccc1C#Cc1ccc(CCC(=O)O)cc1 [Example A30, 3-(4-((2-Ethylphenyl)ethynyl)phenyl)propanoic acid] | – | 7.05
O=C(O)CCc1ccc(C#Cc2cccc(OCc3ccccc3)c2)cc1 [Example A55, 3-(4-((3-(Benzyloxy)phenyl)ethynyl)phenyl)propanoic acid] | 525 | –
Cc1cccc(C#Cc2ccc(C3CC3C(=O)O)cc2)c1 (stereo not drawn) [Example A37, 2-(4-(m-Tolylethynyl)phenyl)cyclopropanecarboxylic acid] | 93.3 | –
O=C(O)CCc1ccc(C#Cc2cccc(CO)c2)cc1 [Example A8, 3-(4-((3-(Hydroxymethyl)phenyl)ethynyl)phenyl)propanoic acid] | – | 6.05
Cc1cccc(C#Cc2ccc(CCC(=O)O)cc2)n1 [Example A23, 3-(4-((6-Methylpyridin-2-yl)ethynyl)phenyl)propanoic acid] | 3800 | –
C=CCOc1cccc(C#Cc2ccc(CCC(=O)O)cc2)c1 [Example A57, 3-(4-((3-(Allyloxy)phenyl)ethynyl)phenyl)propanoic acid] | 145 | –
Cc1ccc(C#Cc2ccc(OCC(=O)O)cc2)cc1 [Example A3, 2-(4-(p-Tolylethynyl)phenoxy)acetic acid] | 29500 | –
COc1ccccc1C#Cc1ccc(CCC(=O)O)cc1 [Example A51, 3-(4-((2-Methoxyphenyl)ethynyl)phenyl) acid] | – | 6.66
O=C(O)CCc1ccc(C#Cc2ccccc2-c2ccccc2)cc1 [Example A40, 3-(4-(Biphenyl-2-ylethynyl)phenyl)propanoic acid] | – | 6.00
N#Cc1cccc(C#Cc2ccc(CCC(=O)O)cc2)c1 [Example A11, 3-(4-((3-Cyanophenyl)ethynyl)phenyl)propanoic acid] | – | 7.04
O=C(O)CCc1ccc(C#Cc2ccccc2CO)cc1 [Example A59] | – | 6.24
O=C(O)CCc1ccc(C#Cc2cc(Cl)nc(Cl)c2)cc1 [Example A33, 3-(4-((2,6-Dichloropyridin-4-yl)ethynyl)phenyl)propanoic acid] | 56.2 | –
O=Cc1cccc(C#Cc2ccc(CCC(=O)O)cc2)c1 [Example A13, 3-(4-((3-Formylphenyl)ethynyl)phenyl)propanoic acid] | – | 6.45
Cc1cccc(C#Cc2ccc(OCC(=O)O)cc2)c1 [Example A4, 2-(4-(m-Tolylethynyl)phenoxy)acetic acid] | 562 | –
Cc1cccc(C#Cc2ccc(CCC(=O)O)cc2)c1C [Example A16, 3-(4-((2,3-Dimethylphenyl)ethynyl)phenyl)propanoic acid] | – | 7.06
O=C(O)CCc1ccc(C#Cc2ncccc2[N+](=O)[O-])cc1 [Example A34, 3-(4-((3-Nitropyridin-2-yl)ethynyl)phenyl)propanoic acid] | – | 4.96
O=C(O)CCc1ccc(C#Cc2cccc(O)c2)cc1 [Example A52, 3-(4-((3-Hydroxyphenyl)ethynyl)phenyl)propanoic acid] | – | 6.35
Nc1cccc(C#Cc2ccc(CCC(=O)O)cc2)c1 [Example A17, 3-(4-((3-Aminophenyl)ethynyl)phenyl)propanoic acid] | – | 5.96
O=C(O)CCc1ccc(C#Cc2ccccn2)cc1 [Example A20, 3-(4-(Pyridin-2-ylethynyl)phenyl)propanoic acid] | 8130 | –
CC(=O)c1ccccc1C#Cc1ccc(CCC(=O)O)cc1 [Example A53, 3-(4-((2-Acetylphenyl)ethynyl)phenyl)propanoic acid] | – | 6.73
O=C(O)[C@@H]1C[C@H]1c1ccc(C#Cc2ccccc2)cc1 (relative stereo) [Example A29, trans-2-(4-(Phenylethynyl)phenyl)cyclopropanecarboxylic acid] | 145 | –
O=C(O)CCc1ccc(C#Cc2cccc3ccccc23)cc1 [Example A6, 3-(4-(1-Naphthylethynyl)phenyl)propanoic acid] | 85.1 | –
